Counter-ions that a name gives are not always drawn.
Tests used:
Type in all cases: biochemical
L. tarentolae lysate = test: Cell-free transcription-translation inhibition in L. tarentolae lysate; details: for IC50: inhibition of translation in active cell lysate, EGFP reporter, 120 min at 26 °C
Method: (§1) Cytosolic ribosome susceptibility and selectivity were assessed through three different cell-free transcription-translation assays: (1) An extract of E. coli (S30, Promega, Madison, WI, USA), (2) in rabbit reticulocytes (Promega), and (3) in L. tarentolae lysate (Jena Bioscience, Jena, Germany). Three plasmids, compatible with each extract system, were used in this study: pBESTlucTM (Promega) for the prokaryotic translation assay, Luciferase T7 DNA (Promega) for the reticulocytes, and pLEXSY-invitro2-EGFP (Jena Bioscience) for Leishmania. Firefly luciferase was used as a reporter gene for the bacterial and reticulocyte systems, and EGFP for Leishmania. […] Assays were performed in white polystyrene 96-well flat-bottom plates (Nunc, Roskilde, Denmark) for luciferase and black polystyrene 384-well flat-bottom plates (Greiner, Kremsmunster, Austria) for EGFP. Incubation times were 60 min at 37 °C, 90 min at 30 °C, and 120 min at 26 °C for the bacterial, reticulocyte, and Leishmania systems, respectively. Reactions were stopped by quick snap cooling followed by a 5 min incubation on ice. Luciferase activity was measured for each well following the addition of 50 μL of Luciferase Assay reagent (Promega, Madison, WI, USA) with an automatic reagent injector (Tecan, Mannedorf, Switzerland) by recording the chemical-luminescence signal. EGFP fluorescence (λex = 488 nm; λem = 507 nm) was recorded on a Tecan Infinite R®F200 microplate reader (Tecan). Extracts lacking the circular DNA template were used as a negative control to calculate the fluorescence/chemical luminescence background. Reaction mixtures without compounds were used as positive controls and were regarded as 100% translation. Paromomycin was used as a control reagent in all assays. At least six different concentrations were used to plot each translation inhibition curve; experiments were performed in three independent repeats in duplicate. Half maximal inhibition concentrations (IC50) values were calculated from the concentration-response fitting curves using GraFit7.0.3 software.

extract of E. coli (S30) = test: Cell-free transcription-translation inhibition in E. coli S30 extract; details: for IC50: inhibition of translation in active cell lysate, luciferase reporter, 60 min at 37 °C
Method: as §1

[1] = tested on: rabbit reticulocytes (RR); test: Cell-free transcription-translation inhibition in rabbit reticulocytes; details: inhibition of translation in rabbit reticulocyte lysate, luciferase reporter, 90 min at 30 °C
Method: as §1

Structure (SMILES)	IC50 (L. tarentolae lysate) [µM]	IC50 (extract of E. coli (S30)) [µM]	effect on E. coli (in words) (extract of E. coli (S30); translation assay)	IC50 [1] [µM]	activity against L. tarentolae translation / anti-protozoan activity (in words) (L. tarentolae lysate)
COc1ccc(C[C@H]2NC[C@H](O)[C@H]2OC(C)=O)cc1 [Analog 1, Anisomycin]	0.55 ± 0.03	> 500	no effect	0.1 ± 0.02	–
COc1ccc(C[C@H]2NC[C@H](O)[C@H]2O)cc1 [Analog 2, (2R,3S,4S)-3,4-dihydroxy-2-(4-methoxybenzyl)-pyrrolidine]	> 100	> 1000	–	> 1000	–
COc1ccc(C[C@@H]2[C@H](OC(C)=O)[C@@H](O)CN2C)cc1 [Analog 8, (2R,3S,4S)-1-methyl-4-hydroxy-2-(4-methoxybenzyl)-pyrrolidin-3-yl acetate]	> 100	> 1000	–	25.5 ± 3.6	–
COc1ccc(C[C@H]2NC[C@H](OC(C)=O)[C@H]2OC(C)=O)cc1 [Analog 9, (2R,3S,4S)-3,4-diacetoxy-2-(4-methoxybenzyl)-pyrrolidine hydrochloride]	> 100	> 1000	–	25.7 ± 8.5	–
COc1ccc(C[C@H]2NC[C@H](OC)[C@H]2OC)cc1 [Analog 10, (2R,3S,4S)-3,4-dimethoxy-2-(4-methoxybenzyl)-pyrrolidine hydrochloride]	> 1000	> 1000	–	> 1000	–
COc1ccc(C[C@H]2NC[C@H](O)[C@H]2OC)cc1 [Analog 11, (2R,3S,4S)-3-methoxy-4-hydroxy-2-(4-methoxybenzyl)-pyrrolidine hydrochloride]	24 ± 2.5	> 1000	–	70.9 ± 8.3	–
COc1ccc(C[C@H]2NC[C@H](O)[C@H]2OC(C)=O)cc1I [Analog 16, (2R,3S,4S)-4-hydroxy-2-(3-iodo-4-methoxybenzyl)-pyrrolidin-3-yl acetate]	> 1000	> 1000	–	73.7 ± 1.7	abolished anti-protozoan activity
CC(=O)O[C@@H]1[C@@H](O)CN[C@@H]1Cc1ccc(O)cc1 [Analog 17, (2R,3S,4S)-4-hydroxy-2-(4-hydroxybenzyl)-pyrrolidin-3-yl acetate]	53.7 ± 6.1	> 200	–	6.2 ± 0.45	–
